The text below walks through data of patent publication US9458113B2 (Boehringer Ingelheim International GmbH, priority 2014, dated 2016).

In brackets after ≈: the same amount, converted by molar mass.

Data set [1] addresses Human neutrophil elastase (Homo sapiens (Human), UniProt P08246). Description: Human Neutrophil Elastase Assay. The data set is classed as biochemical. Particulars: substrate MeOSuc-Ala-Ala-Pro-Val-AMC 250 μM, pH 7.5.
The target in data set [2] is neutrophil elastase in zymosan-stimulated human plasma (Homo sapiens (Human), UniProt P08246). Description: Neutrophil elastase inhibitory activity in human plasma. The data set is classed as biochemical. Particulars: human plasma from zymosan-stimulated blood.
Protocol: Assay for the Determination of Neutrophil Elastase Inhibitory Activity in Human Plasma
Citrated blood from human healthy donors is mixed with zymosan suspension and incubated at room temperature. This leads to the stimulation of neutrophils and the release of neutrophil elastase into the plasma. The stimulated blood is centrifuged to generate the neutrophil elastase enriched plasma.
Various concentrations of the neutrophil elastase inhibitor are incubated with plasma. […] A dose response curve is generated to calculate the EC50 of the inhibitor.
A short description of data set [3]: Metabolic stability with human liver microsomes. The format is in vitro ADME. Particulars: pH 7.6; pooled human liver microsomes, 1 μM test compound, 37° C.; read-out: t1/2 INVITRO. For orientation: Liver microsomes are vesicles of endoplasmic reticulum, rich in cytochrome P450 enzymes.
Data set [4] is described as follows: Aqueous solubility (High Throughput Method). The data set is classed as physicochemical. Particulars: McIlvaine buffer pH 6.8 with 2.5% DMSO, kinetic from dmso stock, McIlvaine buffer pH 6.8, 2.5% DMSO, 24 h shaking. The protocol: Assay for Determination of Aqueous Solubility (“High Throughput Method”)
Starting from a […] DMSO stock solution, aliquots are diluted with acetonitrile/water (1/1) and McIlvaine buffer pH 6.8, respectively. After 24 h of shaking, the solutions or suspensions are filtered and analyzed by LC-UV. The amount dissolved in buffer is compared to the amount dissolved in the acetonitrile/water (1/1) solution. Solubility is measured from 0.001 to 0.125 mg/ml at a DMSO concentration of 2.5%. If more than 90% of the compound is dissolved in buffer, the value is marked with “>”.

Data set [5] can be described thus: Aqueous solubility (Shaked Flask Method). Particulars: aqueous buffer, thermodynamic from solid, pH 6.8. The format is physicochemical. The protocol:
Assay for Determination of Aqueous Solubility (“Shaked Flask Method”)
Saturated solutions are prepared in well plates by adding an appropriate volume of selected aqueous media (typically in the range of 0.25-1.5 ml) into each well which contains a known quantity of solid drug substance (typically in the range 0.5-5.0 mg). The wells are shaken or stirred for a predefined time period (typically in a range of 2-24 h) and then filtered using appropriate filter membranes (typically PTFE-filters with 0.45 μm pore size). Filter absorption is avoided by discarding the first few drops of filtrate. The amount of dissolved drug substance is determined by UV spectroscopy or by HPLC with UV-detection. In addition, the pH of the aqueous saturated solution is measured using a glass-electrode pH meter.

A further data set has as its system human hepatocytes. Description: Metabolic stability with human hepatocytes. Particulars: 1 μM test compound, well stirred model. The format is in vitro ADME. The protocol: Assay for the Determination of Metabolic Stability with Human Hepatocytes
The metabolic degradation of the test compound is assayed in a human hepatocyte suspension. Human hepatocytes (typically cryopreserved) are incubated in an appropriate buffer system (e.g. Dulbecco's modified eagle medium plus 3.5 μg glucagon/500 mL, 2.5 mg insulin/500 mL and 3.75 mg/500 mL hydrocortison) containing 5% species serum. Following a (typically) […] preincubation in an incubator (37° C., 10% CO2), 5 μl of test compound solution (80 μM; from […] stock solution in DMSO diluted 1:25 with medium) are added into 395 μl hepatocyte suspension (cell density in the range 0.25-5*10^6 cells/mL, typically 1*10^6 cells/mL; final concentration of test compound 1 μM, final DMSO concentration 0.05%). The cells are incubated for six hours (incubator, orbital shaker) and samples (25 μl) are taken at 0, 0.5, 1, 2, 4 and 6 hours. Samples are transferred into acetonitrile and pelleted by centrifugation (5 min) The supernatant is transferred to a new 96-deepwell plate, evaporated under nitrogen and resuspended. The decline of parent compound is analyzed by LC-MS/MS.
The intrinsic clearance CL_[…] is calculated as follows: CL_[…]=Dose/AUC=(C0/CD)/(AUD+clast/k)*1,000/60
(C0: initial concentration in the incubation [μM], CD: cell density of vital cells [10^6 cells/mL], AUD: area under the data [μM*h], clast: concentration of last data point [μM], k: slope of the regression line for parent decline [h^−1])
The calculated in vitro hepatic intrinsic clearance Qh can be scaled up to the intrinsic in vivo hepatic clearance and used to predict hepatic in vivo blood clearance (CL) by the use of a liver model (well stirred model): CL_[…]_INVIVO [ml/min/kg]=(CL_[…] [μL/min/10^6 cells]*hepatocellularity [10^6 cells/g liver]*liver factor [g/kg bodyweight])/1,000 CL [ml/min/kg]=CL_[…]_INVIVO [ml/min/kg]*hepatic blood flow [ml/min/kg]/(CL_[…]_INVIVO [ml/min/kg]+hepatic blood flow [ml/min/kg]) Qh [%]=CL [ml/min/kg]/hepatic blood flow [ml/min/kg])
(Hepatocellularity, human: 120*10^6 cells/g liver; liver factor, human: 25.7 g/kg bodyweight; blood flow, human: 21 ml/(min*kg))
The calculated in-vitro hepatic intrinsic clearance values of selected compounds in the metabolic stability assay with human hepatocytes described above are listed in Table 15.

Data set [6] in a line: Drug transport across human Caco-2 cells. The data set is classed as in vitro ADME. Particulars: apparent permeability coefficient, Caco-2 monolayers, pH 7.2, 37° C.; for Papp A→B at 10 µM: apical-to-basal (absorptive), read-out: PEAB; for Papp B→A at 10 µM: basal-to-apical (secretory), read-out: PEBA. An excerpt: Assay for Determination of Drug Transport Across Human Caco-2 Cells
The assay provides information on the potential of a compound to pass the cell membrane, on the extent of oral absorption as well as on whether the compound is actively transported by uptake and/or efflux transporters. For the measurement of permeability across polarized, confluent human cancer colon carcinoma cells 2 (Caco-2) cell monolayers grown on permeable filter supports are used as the in vitro absorption model.
Apparent permeability coefficients (PE) of the compounds across the Caco-2 monolayers are measured (pH 7.2, 37° C.) in apical-to-basal (AB) (absorptive) and basal-to-apical (BA) (secretory) transport direction. AB permeability (PEAB) represents drug absorption from the intestine into the blood and BA permeability (PEBA) drug secretion from the blood back into the intestine via both passive permeability as well as active transport mechanisms mediated by efflux and uptake transporters that are expressed on the Caco-2 cells. The compounds are assigned to permeability/absorption classes by comparison of the AB permeabilities with the AB permeabilities of reference compounds with known in vitro permeability and oral absorption in the human. Identical or similar permeabilities in both transport directions indicate passive permeation, vectorial permeability points to additional active transport mechanisms. […] Active transport is concentration-dependently saturable.
Caco-2 cells (1-2*10^5 cells/cm^2 area) are seeded on filter inserts (Costar transwell polycarbonate or PET filters, 0.4 μm pore size) and cultured (DMEM) for 10 to 25 days. Compounds are dissolved in appropriate solvent (like DMSO, […] stock solutions). Stock solutions are diluted with HTP-4 buffer (128.13 mM NaCl, 5.36 mM KCl, 1 mM MgSO4, 1.8 mM CaCl2, 4.17 mM NaHCO3, 1.19 mM Na2HPO4x7H2O, 0.41 mM NaH2PO4xH2O, 15 mM HEPES, 20 mM glucose, pH 7.2) to prepare the transport solutions (typically 10 μM compound, final DMSO<=0.5%). The transport solution (TL) is applied to the apical or basolateral donor side for measuring A-B or B-A permeability (3 filter replicates), respectively. The receiver side contains HTP-4 buffer supplemented with 2% BSA. Samples are collected at the start and end of experiment from the donor and at various time intervals for up to 2 hours also from the receiver side for concentration measurement by LC-MS/MS or scintillation counting. Sampled receiver volumes are replaced with fresh receiver solution.
The apparent permeability coefficients (PEAB and PEBA) of selected compounds in the Caco-2 drug transport assay described above are listed in Table 16.
A general note: Caco-2 cells form a polarised layer with tight junctions and transporters.

Chain of neutrophil elastase in zymosan-stimulated human plasma (P08246 30-247): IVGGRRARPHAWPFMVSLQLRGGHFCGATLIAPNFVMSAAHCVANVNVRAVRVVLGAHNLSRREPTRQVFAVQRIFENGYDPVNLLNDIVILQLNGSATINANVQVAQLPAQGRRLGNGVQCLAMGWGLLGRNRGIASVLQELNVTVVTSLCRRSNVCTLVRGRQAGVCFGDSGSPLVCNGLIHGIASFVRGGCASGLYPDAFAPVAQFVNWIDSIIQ
Chain of Human neutrophil elastase (P08246 30-247): as above

Turning to `CN1C(=O)N(c2cccc(C(F)(F)F)c2)C2=C(C(=O)CCC2)[C@H]1c1ccc(C#N)cc1-c1ccn(C)c(=O)c1` [Example 20.b, 4-[3-Methyl-2,5-dioxo-1-(3-trifluoromethyl-phenyl)-1,2,3,4,5,6,7,8-octahydro-quinazolin-4-yl]-3-(1-methyl-2-oxo-1,2-dihydro-pyridin-4-yl)-benzonitrile], the IC50 (in general, the point on the concentration scale where inhibition reaches its midpoint) in data set [1] is under 1 nM. A half-maximal effect in data set [2] (EC50) was put at 1 nM. Also, the half-life at 1 μM in data set [3] is over 2.17 h. Besides, in data set [4], the solubility (as a rule, the dissolved amount per volume that the medium holds) at 24 h was found to be 72 µg/mL (≈ 135 µM). The solubility in data set [5] is over 10 µg/mL.
In data set [1], `CN1C(=O)N(c2cccc(C(F)(F)F)c2)C2=C(C(=O)CC2)C1c1ccc(C#N)cc1-c1ccncn1` (stereo not shown) [Example 22, 4-[3-Methyl-2,5-dioxo-1-(3-trifluoromethyl-phenyl)-2,3,4,5,6,7-hexahydro-1H-cyclopentapyrimidin-4-yl]-3-pyrimidin-4-yl-benzonitrile] showed an IC50 of 3.8 nM. Also, in data set [2], the half-maximal effective concentration (EC50) (as a rule, the concentration at which the effect is half-maximal) is 6 nM. Also, in data set [3], the half-life at 1 μM is over 2.17 h. Moreover, in the data set with human hepatocytes, the Qh was determined as 12%. Further, in data set [6], the Papp A→B at 10 µM came to 52 ×10⁻⁶ cm/s and the Papp B→A at 10 µM was determined as 77 ×10⁻⁶ cm/s. In addition, in data set [4], the concentration in solution (solubility at 24 h) was 83 µg/mL (≈ 170 µM). Moreover, the solubility in data set [5] was over 10 µg/mL.
`CN1C(=O)N(c2cccc(C(F)(F)F)c2)C2=C(C(=O)CC2)C1c1ccc(C#N)cc1-c1cncnc1` (stereo not shown) [Example 21]: the concentration for half-maximal inhibition (IC50) in data set [1] was found to be 1.3 nM. In data set [2], this compound showed an EC50 of 2 nM. In data set [3], the half-life at 1 μM is over 2.17 h. The same compound displayed a Qh in the data set on human hepatocytes of 23%. In data set [6], the Papp A→B at 10 µM is 52 ×10⁻⁶ cm/s and the Papp B→A at 10 µM turned out to be 67 ×10⁻⁶ cm/s. Further, the concentration in solution in data set [4] (solubility at 24 h) was 50 µg/mL (≈ 102 µM). The same compound returned a solubility in data set [5] of over 10 µg/mL.
In the case of `CN1C(=O)N(c2cccc(C(F)(F)F)c2)C2=C(C(=O)CC2)[C@H]1c1ccc(C#N)cc1CNC1CCOCC1` [Example 25, 4-[(R)-3-Methyl-2,5-dioxo-1-(3-trifluoromethyl-phenyl)-2,3,4,5,6,7-hexahydro-1H-cyclopentapyrimidin-4-yl]-3-[(tetrahydro-pyran-4-ylamino)-methyl]-benzonitrile], in data set [1], the concentration for half-maximal inhibition (IC50) is 1.9 nM. This compound also displayed a concentration giving a half-maximal response (EC50) in data set [2] of 7 nM. Further, the half-life at 1 μM in data set [3] was over 2.17 h. Besides, the Qh in the data set on human hepatocytes is given as 20%. For the same compound, in data set [6], the Papp A→B at 10 µM was determined as 16 ×10⁻⁶ cm/s and the Papp B→A at 10 µM was found to be 96 ×10⁻⁶ cm/s. This compound showed a solubility in data set [5] of over 10 µg/mL.
